Data published in ChEMBL document CHEMBL1123414, “Neurochemistry of aging. 1. Toxins for an animal model of Alzheimer's disease” (J Med Chem, 1986).

Experiments:
[1] = biological target: Muscarinic acetylcholine receptor M3 (Rattus norvegicus) (UniProt P08483); assay: Compound was tested in vitro for its ability to displace [3H]-QNB from brain Muscarinic acetylcholine receptor
[2] = biological target: T1, High affinity choline transporter 1 (Mus musculus, UniProt Q8BGY9); assay: In vitro ability to inhibit the transport of [3H]choline in to high affinity choline transport system HAChT
T1 sequence (Q8BGY9 whole entry): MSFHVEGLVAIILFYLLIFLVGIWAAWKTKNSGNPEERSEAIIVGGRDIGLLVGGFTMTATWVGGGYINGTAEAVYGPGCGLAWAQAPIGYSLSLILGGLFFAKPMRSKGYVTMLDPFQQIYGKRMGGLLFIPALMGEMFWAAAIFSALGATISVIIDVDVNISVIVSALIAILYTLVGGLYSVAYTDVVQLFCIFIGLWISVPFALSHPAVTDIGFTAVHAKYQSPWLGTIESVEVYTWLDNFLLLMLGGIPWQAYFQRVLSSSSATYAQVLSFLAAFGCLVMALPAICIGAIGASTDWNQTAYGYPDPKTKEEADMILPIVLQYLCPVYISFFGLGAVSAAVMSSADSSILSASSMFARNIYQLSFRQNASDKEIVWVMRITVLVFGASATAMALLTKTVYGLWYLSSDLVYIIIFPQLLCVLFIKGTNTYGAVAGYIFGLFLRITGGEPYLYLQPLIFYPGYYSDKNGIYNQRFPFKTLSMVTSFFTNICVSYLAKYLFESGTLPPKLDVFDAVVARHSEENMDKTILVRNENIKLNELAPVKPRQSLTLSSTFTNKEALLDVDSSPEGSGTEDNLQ

Chain of Muscarinic acetylcholine receptor M3 (Rattus norvegicus) (P08483 whole entry, looked up): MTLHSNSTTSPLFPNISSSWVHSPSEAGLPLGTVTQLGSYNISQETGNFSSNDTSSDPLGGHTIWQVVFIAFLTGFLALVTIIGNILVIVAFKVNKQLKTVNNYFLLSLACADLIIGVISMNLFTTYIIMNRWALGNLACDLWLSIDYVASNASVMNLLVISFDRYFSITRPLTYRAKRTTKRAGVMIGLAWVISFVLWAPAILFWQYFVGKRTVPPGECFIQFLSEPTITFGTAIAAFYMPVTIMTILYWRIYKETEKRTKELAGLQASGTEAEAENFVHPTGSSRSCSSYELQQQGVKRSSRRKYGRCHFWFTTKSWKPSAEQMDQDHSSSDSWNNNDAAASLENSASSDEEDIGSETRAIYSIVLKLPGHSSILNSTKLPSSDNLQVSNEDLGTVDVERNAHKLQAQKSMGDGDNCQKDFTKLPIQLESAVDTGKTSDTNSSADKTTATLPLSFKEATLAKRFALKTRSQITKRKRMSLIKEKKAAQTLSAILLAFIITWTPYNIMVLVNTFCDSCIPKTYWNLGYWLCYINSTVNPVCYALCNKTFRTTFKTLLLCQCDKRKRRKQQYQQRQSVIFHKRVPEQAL

Compound	Displacement [1] [%]	IC50 [2] [µM]
CCCC[N+]1(CCO)CC1	9	> 1000
CCC[N+]1(CCO)CC1	16	7.5
CC[N+]1(CCO)CC1	18	1.5
CC(C)C[N+]1(CCO)CC1	6	31
C[N+](C)(C)CCO [CHOLINE]		1.6
